{"source": "patent US10265413B2", "about": "“High molecular weight biodegradable gelatin-doxorubicin conjugate” (priority 2014, dated 2019)", "origin": "cited, not measured here", "conditions": "cumulative doses"}
{"smiles": "COc1cccc2c1C(=O)c1c(O)c3c(c(O)c1C2=O)C[C@@](O)(C(=O)CO)C[C@@H]3O[C@H]1C[C@H](N)[C@H](O)[C@H](C)O1", "note": "[DOX, (7S,9S)-7-[(2R,4S,5S,6S)-4-amino-5-hydroxy-6-methyloxan-2-yl]oxy-6,9,11-trihydroxy-9-(2-hydroxyacetyl)-4-methoxy-8,10-dihydro-7H-tetracene-5,12-dione]", "values": [{"measurement": "cumulative dose above which irreversible cardiomyopathy occurs", "result": "> 550", "unit": "mg/m^2"}]}
